Data on 20 compounds can be found in patent US20230114241A1, “METHODS OF TREATING EPILEPSY USING THE SAME” (Trevena, Inc., priority 2019, published 2023).

The target in test [1] is T1, human sphingosine-1-phosphate receptor 1 (S1P1) (Homo sapiens, UniProt P21453). Description: Inhibition of cAMP production (HTRF cAMP HiRange), S1P1 CHO-K1 cells. The test is classed as cell-based. Conditions: for Emax: CHO-K1, efficacy normalized to maximum efficacy of fingolimod, read-out: hS1P1 CAMP SPAN; for EC50: read-out: hS1P1 CAMP pEC50 (converted). An outline of the steps:
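CHO-K1 cells co-expressing human S1P1 (C-terminal ProLink tag) and EA-β-arrestin2, plated overnight; after 30 min compound incubation at 37 °C, intracellular cAMP measured by HTRF TR-FRET following 1 h at room temperature. Values normalized to fingolimod.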
Target sequence in this assay (P21453 whole entry): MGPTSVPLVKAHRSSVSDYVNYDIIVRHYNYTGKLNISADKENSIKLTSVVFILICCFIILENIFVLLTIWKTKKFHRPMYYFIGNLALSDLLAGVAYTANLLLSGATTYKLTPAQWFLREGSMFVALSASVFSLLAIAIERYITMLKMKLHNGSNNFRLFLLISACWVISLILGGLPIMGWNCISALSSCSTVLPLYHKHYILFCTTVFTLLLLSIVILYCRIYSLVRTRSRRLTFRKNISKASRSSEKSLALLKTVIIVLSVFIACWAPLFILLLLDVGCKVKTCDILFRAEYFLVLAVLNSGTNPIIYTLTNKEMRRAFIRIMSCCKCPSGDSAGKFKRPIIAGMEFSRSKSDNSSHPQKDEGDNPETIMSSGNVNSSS

For test [2], the target named is T1, human sphingosine-1-phosphate receptor 1 (S1P1). Description: β-Arrestin2 recruitment assay (PathHunter), S1P1 CHO-K1 cells. The format is cell-based. Conditions: for Emax: efficacy normalized to maximum efficacy of fingolimod, read-out: hS1P1 B-arrestin2 SPAN; for EC50: β-arrestin2 recruitment, read-out: hS1P1 B-arrestin2 pEC50 (converted). An outline of the steps: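 CHO-K1 cells co-expressing EA-β-arrestin2 and ProLink-tagged human S1P1 plated overnight, then stimulated 60 min at 37 °C. Enzyme-fragment complementation (β-galactosidase) detected after 1 h at room temperature by luminescence; values normalized to fingolimod.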
Target sequence in this assay (P21453 whole entry): as above
Target sequence in this assay (P32121 whole entry partner): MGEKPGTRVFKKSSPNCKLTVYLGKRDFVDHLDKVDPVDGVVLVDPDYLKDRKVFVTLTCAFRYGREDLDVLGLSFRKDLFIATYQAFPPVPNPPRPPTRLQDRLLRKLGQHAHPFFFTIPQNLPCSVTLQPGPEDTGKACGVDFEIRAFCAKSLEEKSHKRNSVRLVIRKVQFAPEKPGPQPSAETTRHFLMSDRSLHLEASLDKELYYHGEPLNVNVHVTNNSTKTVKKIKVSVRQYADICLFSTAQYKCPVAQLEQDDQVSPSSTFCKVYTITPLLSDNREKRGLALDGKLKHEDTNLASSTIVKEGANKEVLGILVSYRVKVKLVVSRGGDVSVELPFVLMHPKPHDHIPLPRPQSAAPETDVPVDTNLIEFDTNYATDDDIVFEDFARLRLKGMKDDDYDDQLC

Setting [3] is: inhibition of cAMP production, S1P1.
Where [4] appears, read: inhibition of cAMP production, potency.
Where [5] appears, read: CHO-K1, β-arrestin2 recruitment.

Bounds are passed on as bounds.

As for `CC(C)n1ccc2cc(-c3noc(-c4ccccc4Br)n3)ccc21` [Compound 388, 5-(2-bromophenyl)-3-(1-isopropyl-1H-indol-5-yl)-1,2,4-oxadiazole], the Emax in test [1] and in test [2] (CHO-K1) was > 75% in each case. Moreover, the values for the EC50 in test [1] (setting [3]) and in test [2] (S1P1) were < 316 nM and < 10000 nM, respectively.

Consider `CC(C)n1nnc2cc(-c3nc(-c4cccnc4)no3)ccc21` [Compound 165, 1-(propan-2-yl)-5-[3-(pyridin-3-yl)-1,2,4-oxadiazol-5-yl]-1H-1,2,3-benzotriazole], for which the Emax in test [1] (inhibition of cAMP production) and in test [2] (setting [5]) was > 75% each time. The EC50 in test [1] (setting [4]) was > 316 nM; in test [2] (potency), > 10000 nM.

In the case of `Cn1cnc2cc(-c3nnc(-c4ccc(NCC(F)F)c(C#N)c4)o3)ccc21` [Compound 573, 2-[(2,2-difluoro-ethyl)amino]-5-[5-(1-methyl-1H-1,3-benzodiazol-5-yl)-1,3,4-oxadiazol-2-yl]benzonitrile], the Emax in test [1] and in test [2] (CHO-K1) was < 75% throughout. The EC50 was > 316 nM in test [1] (setting [3]) and > 10000 nM in test [2] (S1P1).

`O=C1CC2(CCCC2)Oc2ccc(-c3nc(-c4cccnc4)no3)cc21` [Compound 298, 6-[3-(pyridin-3-yl)-1,2,4-oxadiazol-5-yl]-3,4-dihydrospiro[1-benzopyran-2,1′-cyclopentane]-4-one]: the results for the Emax in test [1] (inhibition of cAMP production) and in test [2] (setting [5]) were > 75% and < 75%, respectively. In addition, the EC50 in test [1] (setting [4]) was > 316 nM; in test [2] (potency), < 10000 nM.

As for `Cn1cnc2ccc(-c3nnc(-c4ccc(NCC(F)F)c(C#N)c4)o3)cc21` [Compound 580, 2-[(2,2-difluoro-ethyl)amino]-5-[5-(1-methyl-1H-1,3-benzodiazol-6-yl)-1,3,4-oxadiazol-2-yl]benzonitrile], the Emax in test [1] and in test [2] (CHO-K1) was > 75% each time. Further, the EC50 in test [1] (setting [3]) was < 316 nM; in test [2] (S1P1), < 10000 nM.

Consider `Cc1ccccc1-c1nsc(-c2ccc3c(ccn3C(C)C)c2)n1` [Compound 381, 5-[3-(2-methylphenyl)-1,2,4-thiadiazol-5-yl]-1-(propan-2-yl)-1H-indole], for which the Emax in test [1] and in test [2] (CHO-K1) was < 75% throughout. Also, the EC50 was > 316 nM in test [1] (setting [3]) and < 10000 nM in test [2] (S1P1).

With `CC(C)n1nnc2cc(-c3nc(-c4ccc(-c5ccccc5)cn4)no3)ccc21` [Compound 9, 5-[3-(5-phenylpyridin-2-yl)-1,2,4-oxadiazol-5-yl]-1-(propan-2-yl)-1H-1,2,3-benzotriazole], the Emax in test [1] (inhibition of cAMP production) and in test [2] (setting [5]) was < 75% each time. Moreover, the results for the EC50 in test [1] (setting [4]) and in test [2] (potency) were > 316 nM and > 10000 nM, respectively.

Regarding `CC(C)(CO)n1nnc2cc(-c3noc(-c4ccncc4C(F)(F)F)n3)ccc21` [Compound 626, 2-methyl-2-(5-(5-(3-(trifluoro-methyl)pyridin-4-yl)-1,2,4-oxadiazol-3-yl)-1H-benzo[d] [1,2,3]triazol-1-yl)propan-1-ol], the Emax in test [1] and in test [2] (CHO-K1) was < 75% each time. Besides, the EC50 in test [1] (setting [3]) was > 316 nM.

Take `COc1ccc(-c2nc(-c3ccc4c(ccn4C(C)C)c3)no2)cc1` [Compound 393, 3-(1-isopropyl-1H-indol-5-yl)-5-(4-methoxyphenyl)-1,2,4-oxadiazole]: the Emax in test [1] and in test [2] (CHO-K1) was < 75% throughout. Besides, the results for the EC50 in test [1] (setting [3]) and in test [2] (S1P1) were > 316 nM and > 10000 nM, respectively.

As to `CC1CC(=O)c2ccc(-c3nc(-c4cccnc4)no3)cc2O1` (stereo not shown) [Compound 535, 2-methyl-7-[3-(pyridin-3-yl)-1,2,4-oxadiazol-5-yl]-3,4-dihydro-2H-1-benzopyran-4-one], the Emax in test [1] and in test [2] (CHO-K1) was < 75% each time. Further, the EC50 in test [1] (setting [3]) is > 316 nM; in test [2] (S1P1), < 10000 nM.

Consider `CCC1(CC)CC(=O)c2cc(-c3nc(-c4cncc(C(N)=O)c4)no3)ccc2O1` [Compound 537, 5-(5-(2,2-diethyl-4-oxochroman-6-yl)-1,2,4-oxadiazol-3-yl)nicotinamide], for which the Emax in test [1] was > 75%; in test [2] (CHO-K1) it was < 75%. Besides, the EC50 in test [1] (setting [3]) was < 316 nM; in test [2] (S1P1), < 10000 nM.

Regarding `COc1cccc(-c2nc(-c3ccc4[nH]ccc4c3)ns2)c1` [Compound 364, 5-[5-(3-methoxyphenyl)-1,2,4-thiadiazol-3-yl]-1H-indole], the Emax in test [1] (inhibition of cAMP production) was > 75%; in test [2] (setting [5]), < 75%. The EC50 in test [1] (setting [4]) is > 316 nM; in test [2] (potency) it was > 10000 nM.

Regarding `CCC1(CC)CC(=O)c2cc(-c3nc(-c4cnccc4C(F)(F)F)no3)ccc2O1` [Compound 558, 2,2-diethyl-6-(3-(4-(trifluoromethyl)pyridin-3-yl)-1,2,4-oxadiazol-5-yl)chroman-4-one], the Emax in test [1] and in test [2] (CHO-K1) was > 75% in each case. Further, the EC50 in test [1] (setting [3]) is < 316 nM; in test [2] (S1P1), < 10000 nM.

For the compound `COc1ccccc1-c1noc(-c2cnc3c(c2)nnn3C(C)C)n1` [Compound 383, 3-(2-methoxyphenyl)-5-[3-(propan-2-yl)-3H-[1,2,3]triazolo[4,5-b]pyridin-6-yl]-1,2,4-oxadiazole], the Emax in test [1] and in test [2] (CHO-K1) was > 75% throughout. Moreover, the EC50 in test [1] (setting [3]) was < 316 nM; in test [2] (S1P1), < 10000 nM.

`CC(C)n1ccc2cc(-c3noc(-c4cccc(F)c4)n3)ccc21` [Compound 394, 5-(3-fluorophenyl)-3-(1-isopropyl-1H-indol-5-yl)-1,2,4-oxadiazole]: the Emax in test [1] and in test [2] (CHO-K1) was < 75% each time. Besides, the EC50 in test [1] (setting [3]) is > 316 nM; in test [2] (S1P1), < 10000 nM.

Take `CC(C)Nc1ccc(-c2nnc(-c3ccc4c(c3)ncn4C)o2)cc1C#N` [Compound 572, 5-[5-(1-methyl-1H-1,3-benzodiazol-5-yl)-1,3,4-oxadiazol-2-yl]-2-[(propan-2-yl)amino]benzonitrile]: the Emax in test [1] is < 75%; in test [2] (CHO-K1), > 75%. Also, the EC50 was > 316 nM in test [1] (setting [3]) and > 10000 nM in test [2] (S1P1).

Take `CCC1(CC)CC(=O)c2cc(-c3noc(-c4ccc(NCC5CC5)c(C#N)c4)n3)ccc2O1` [Compound 444, 2-((cyclopropyl-methyl)amino)-5-(3-(2,2-diethyl-4-oxochroman-6-yl)-1,2,4-oxadiazol-5-yl)benzonitrile]: the Emax in test [1] and in test [2] (CHO-K1) was < 75% in each case. Also, the EC50 in test [1] (setting [3]) is > 316 nM; in test [2] (S1P1), < 10000 nM.

With `CCC1(CC)CC(=O)c2cc(-c3nc(-c4ccnc(C(N)=O)c4)no3)ccc2O1` [Compound 555, 4-(5-(2,2-diethyl-4-oxochroman-6-yl)-1,2,4-oxadiazol-3-yl)picolinamide], the Emax in test [1] and in test [2] (CHO-K1) was < 75% each time. For the same compound, the EC50 in test [1] (setting [3]) is < 316 nM; in test [2] (S1P1), < 10000 nM.

On to `CC(C)n1nnc2cc(-c3noc(-c4ccccc4C(F)(F)F)n3)ccc21` [Compound 33, 3-(1-isopropyl-benzotriazol-5-yl)-5-[2-(trifluoromethyl)phenyl]-1,2,4-oxadiazole], for which the Emax in test [1] (inhibition of cAMP production) and in test [2] (setting [5]) was > 75% each time. Besides, the EC50 was < 316 nM in test [1] (setting [4]) and < 10000 nM in test [2] (potency).

On to `COc1cc(-c2noc(-c3ccc4c(c3)nnn4C3CC3)n2)ccn1` [Compound 155, 1-cyclopropyl-5-[3-(2-methoxypyridin-4-yl)-1,2,4-oxadiazol-5-yl]-1H-1,2,3-benzotriazole], for which the Emax in test [1] (inhibition of cAMP production) and in test [2] (setting [5]) was < 75% throughout. In addition, the EC50 was > 316 nM in test [1] (setting [4]) and > 10000 nM in test [2] (potency).
